According to the supplement of paper PMC11061612:

Experiments:
[1] = test system: EB-3 (Burkitt's Lymphoma); assay: Bliss excess, mean over the matrix (fraction); higher = more synergy
Procedure, shortened: (§1)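 Cell lines grown in DMEM/F12 or RPMI with 10% FBS were plated in 1536-well plates and held 24 hours at 37°C, 5% CO2 before 72 hours of exposure to two-drug dose matrices, with DMSO typically at 0.2%. CellTiter-Glo 2.0 luminescence gave viability, which was converted to inhibition. Vehicle wells were set to 0 and blank wells to 1. Combination Emax is the second-highest inhibition in the matrix, and Bliss excess is the observed combination effect minus the expected EA + EB − EA·EB, where EA and EB are the single-agent effects.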

CHL-1 (Melanoma) [2] = assay: as above
Procedure, shortened: as §1

[3] = test system: Becker (Low Grade Glioma); assay: as above
Procedure, shortened: as §1

[4] = test system: PC-14 (Lung Adenocarcinoma); assay: as above
Procedure, shortened: as §1

[5] = test system: OV-90 (Ovarian Carcinoma); assay: as above
Procedure, shortened: as §1

[6] = test system: CML-T1 (Chronic Myelogenous Leukemia); assay: as above
Procedure, shortened: as §1

[7] = test system: PANC-02-03 (Pancreatic Carcinoma); assay: as above
Procedure, shortened: as §1

[8] = test system: NCI-H1755 (Lung Adenocarcinoma); assay: as above
Procedure, shortened: as §1

[9] = test system: FLO-1 (Esophageal Adenocarcinoma); assay: as above
Procedure, shortened: as §1

[10] = test system: COLO-684 (Endometrial Carcinoma); assay: as above
Procedure, shortened: as §1

[11] = test system: KYSE-70 (Esophageal Squamous Cell Carcinoma); assay: as above
Procedure, shortened: as §1

[12] = test system: SK-MM-2 (Plasma Cell Myeloma); assay: as above
Procedure, shortened: as §1

[13] = test system: HCC-44 (Lung Adenocarcinoma); assay: as above
Procedure, shortened: as §1

[14] = test system: NKM-1 (Acute Myeloid Leukemia); assay: as above
Procedure, shortened: as §1

[15] = test system: SW684 (Other Solid Carcinomas); assay: as above
Procedure, shortened: as §1

[16] = test system: RMG-I (Ovarian Carcinoma); assay: as above
Procedure, shortened: as §1

KYM-1 (Rhabdomyosarcoma) [17] = assay: as above
Procedure, shortened: as §1

[18] = test system: NCI-H810 (Non-Small Cell Lung Carcinoma); assay: as above
Procedure, shortened: as §1

[19] = test system: LAMA-84 (Chronic Myelogenous Leukemia); assay: as above
Procedure, shortened: as §1

[20] = test system: LOUCY (T-Lymphoblastic Leukemia); assay: as above
Procedure, shortened: as §1

[21] = test system: EB-3 (Burkitt's Lymphoma); assay: combination Emax (second highest fraction inhibited in the dose matrix, 72 h); higher = more inhibition; extreme values may be limits of the assay
Procedure, shortened: as §1

CHL-1 (Melanoma) [22] = assay: as above
Procedure, shortened: as §1

[23] = test system: Becker (Low Grade Glioma); assay: as above
Procedure, shortened: as §1

[24] = test system: PC-14 (Lung Adenocarcinoma); assay: as above
Procedure, shortened: as §1

[25] = test system: OV-90 (Ovarian Carcinoma); assay: as above
Procedure, shortened: as §1

[26] = test system: CML-T1 (Chronic Myelogenous Leukemia); assay: as above
Procedure, shortened: as §1

[27] = test system: PANC-02-03 (Pancreatic Carcinoma); assay: as above
Procedure, shortened: as §1

[28] = test system: NCI-H1755 (Lung Adenocarcinoma); assay: as above
Procedure, shortened: as §1

[29] = test system: FLO-1 (Esophageal Adenocarcinoma); assay: as above
Procedure, shortened: as §1

[30] = test system: COLO-684 (Endometrial Carcinoma); assay: as above
Procedure, shortened: as §1

[31] = test system: KYSE-70 (Esophageal Squamous Cell Carcinoma); assay: as above
Procedure, shortened: as §1

[32] = test system: SK-MM-2 (Plasma Cell Myeloma); assay: as above
Procedure, shortened: as §1

[33] = test system: HCC-44 (Lung Adenocarcinoma); assay: as above
Procedure, shortened: as §1

[34] = test system: NKM-1 (Acute Myeloid Leukemia); assay: as above
Procedure, shortened: as §1

[35] = test system: SW684 (Other Solid Carcinomas); assay: as above
Procedure, shortened: as §1

[36] = test system: RMG-I (Ovarian Carcinoma); assay: as above
Procedure, shortened: as §1

KYM-1 (Rhabdomyosarcoma) [37] = assay: as above
Procedure, shortened: as §1

[38] = test system: NCI-H810 (Non-Small Cell Lung Carcinoma); assay: as above
Procedure, shortened: as §1

[39] = test system: LAMA-84 (Chronic Myelogenous Leukemia); assay: as above
Procedure, shortened: as §1

[40] = test system: LOUCY (T-Lymphoblastic Leukemia); assay: as above
Procedure, shortened: as §1
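Throughout, for Bliss excess, mean over the matrix: after 72 h of two-drug dosing.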

Row | SMILES | Bliss excess [1] | Bliss excess (CHL-1 (Melanoma) [2]) | Bliss excess [3] | Bliss excess [4] | Bliss excess [5] | Bliss excess [6] | Bliss excess [7] | Bliss excess [8] | Bliss excess [9] | Bliss excess [10] | Bliss excess [11] | Bliss excess [12] | Bliss excess [13] | Bliss excess [14] | Bliss excess [15] | Bliss excess [16] | Bliss excess (KYM-1 (Rhabdomyosarcoma) [17]) | Bliss excess [18] | Bliss excess [19] | Bliss excess [20] | combination Emax [21] | combination Emax (CHL-1 (Melanoma) [22]) | combination Emax [23] | combination Emax [24] | combination Emax [25] | combination Emax [26] | combination Emax [27] | combination Emax [28] | combination Emax [29] | combination Emax [30] | combination Emax [31] | combination Emax [32] | combination Emax [33] | combination Emax [34] | combination Emax [35] | combination Emax [36] | combination Emax (KYM-1 (Rhabdomyosarcoma) [37]) | combination Emax [38] | combination Emax [39] | combination Emax [40]
1 | Cc1c2c(nn1C)CSCc1cc(n(C)n1)CSc1cc(c3ccccc3c1)OCCCc1c(C(=O)O)n(C)c3c-2c(Cl)ccc13 [AZD5991] + CC(=O)O[C@H]1C(=O)[C@@]2(C)[C@H]([C@H](OC(=O)c3ccccc3)[C@]3(O)C[C@H](OC(=O)[C@H](O)[C@@H](NC(=O)c4ccccc4)c4ccccc4)C(C)=C1C3(C)C)[C@]1(OC(C)=O)CO[C@@H]1C[C@@H]2O [Paclitaxel] (first compound max 1 µM, 7x7, partner max 3 µM) | -0.0558 | 0.0482 | 0.0068 | -0.0298 | 0.0575 | -0.0139 | -0.0131 | -0.0385 | -0.0172 | 0.0057 | 0.0855 | 0.0033 | -0.0764 | 0.0294 | -0.0818 | -0.0514 | 0.0663 | 0.125 | -0.0161 | -0.051 | 0.685 | 1 | 0.982 | 0.947 | 0.379 | 0.954 | 0.427 | 0.734 | 0.928 | 0.558 | 0.534 | 0.34 | 0.83 | 1 | 0.52 | 0.322 | 1 | 0.871 | 0.895 | 0.898
2 | Cc1c2c(nn1C)CSCc1cc(n(C)n1)CSc1cc(c3ccccc3c1)OCCCc1c(C(=O)O)n(C)c3c-2c(Cl)ccc13 [AZD5991] + CS(=O)(=O)CCNCc1ccc(-c2ccc3ncnc(Nc4ccc(OCc5cccc(F)c5)c(Cl)c4)c3c2)o1 [Lapatinib] (first compound max 1 µM, 7x7, partner max 10 µM) | -0.0068 | 0.0766 | -0.0011 | 0.0203 | -0.0817 | 0.0228 | -0.0159 | -0.015 | -0.0454 | -0.114 | -0.0329 | -0.0011 | -0.0301 | -0.0148 | -0.116 | 0.0088 | 0.0243 | -0.0722 | 0.0258 | 0.0351 | 0.6 | 0.835 | 0.277 | 0.963 | 0.247 | 0.24 | 0.368 | 0.755 | 0.537 | 0.421 | 0.177 | 0.115 | 0.352 | 0.995 | 0.177 | 0.532 | 0.589 | 0.261 | 0.165 | 0.688
3 | Cc1c2c(nn1C)CSCc1cc(n(C)n1)CSc1cc(c3ccccc3c1)OCCCc1c(C(=O)O)n(C)c3c-2c(Cl)ccc13 [AZD5991] + Nc1ccn([C@@H]2O[C@H](CO)[C@@H](O)C2(F)F)c(=O)n1 [Gemcitabine] (first compound max 1 µM, 7x7, partner max 0.3 µM) | 0.0273 | 0.0685 | -0.033 | 0.0171 | -0.0251 | -0.0219 | -0.053 | 0.0224 | -0.0134 | -0.0376 | -0.0423 | -0.0172 | -0.0513 | -0.0275 | -0.0767 | -0.0592 | 0.0209 | 0.0467 | 0.0095 | 0.131 | 0.377 | 0.785 | 0.567 | 0.692 | 0.505 | 0.991 | 0.366 | 0.435 | 0.823 | 0.573 | 0.141 | 0.351 | 0.598 | 1 | 0.253 | 0.367 | 1 | 0.597 | 0.939 | 0.774
4 | C[C@@H]1COCCN1c1cc(C2([S@](C)(=N)=O)CC2)nc(-c2ccnc3[nH]ccc23)n1 [AZD6738] + Nc1ccn([C@@H]2O[C@H](CO)[C@@H](O)C2(F)F)c(=O)n1 [Gemcitabine] (first compound max 10 µM, 7x7, partner max 0.3 µM) | 0.007 | 0.0858 | 0.0762 | 0.0058 | -0.0129 | 0.0987 | -0.0067 | 0.0444 | 0.124 | -0.0731 | -0.0006 | 0.114 | 0.0963 | -0.0345 | 0.0693 | -0.0514 | 0.0132 | 0.0805 | 0.0674 | 0.0579 | 0.847 | 0.902 | 0.808 | 0.869 | 0.573 | 1 | 0.579 | 0.812 | 0.949 | 0.733 | 0.504 | 0.572 | 0.844 | 1 | 0.559 | 0.48 | 1 | 0.794 | 0.976 | 1
5 | Cc1cc2ncnn2cc1Nc1ncc2c(n1)n(C1CCOCC1)c(=O)n2C [AZD7648] + COc1cc([C@@H]2c3cc4c(cc3[C@@H](O[C@@H]3O[C@@H]5CO[C@@H](C)O[C@H]5[C@H](O)[C@H]3O)[C@H]3COC(=O)[C@H]23)OCO4)cc(OC)c1O [Etoposide] (first compound max 10 µM, 7x7, partner max 10 µM) | 0.0374 | 0.0767 | 0.096 | 0.097 | -0.0525 | 0.0779 | 0.0386 | 0.0418 | 0.0863 | -0.0174 | -0.0437 | 0.0378 | 0.0009 | 0.106 | -0.0208 | 0.01 | 0.119 | -0.079 | 0.154 | 0.0421 | 0.942 | 0.82 | 0.748 | 0.757 | 0.399 | 1 | 0.378 | 0.486 | 0.85 | 0.497 | 0.168 | 0.437 | 0.809 | 0.976 | 0.428 | 0.386 | 0.927 | 0.598 | 0.948 | 0.968
6 | C[C@@H](Nc1cc(F)cc(F)c1)c1cc(C(=O)N(C)C)cc2c(=O)cc(N3CCOCC3)oc12 [AZD8186] + C1CN(CCC1(C(=O)N[C@@H](CCO)C2=CC=C(C=C2)Cl)N)C3=NC=NC4=C3C=CN4 [AZD5363] (first compound max 10 µM, 7x7, partner max 10 µM) | -0.0203 | -0.0392 | 0.0295 | 0.0006 | -0.0556 | -0.0629 | -0.0364 | -0.0436 | -0.0114 | -0.0839 | -0.0493 | -0.0255 | -0.0319 | -0.0454 | -0.0408 | -0.0317 | -0.0245 | -0.099 | -0.0192 | 0.0819 | 0.324 | 0.433 | 0.646 | 0.399 | 0.208 | 0.53 | 0.237 | 0.642 | 0.43 | 0.615 | 0.233 | 0.202 | 0.609 | 0.615 | 0.572 | 0.401 | 0.4 | 0.17 | 0.198 | 0.494
